According to patent EP4624465A1, “COMPOUND SERVING AS DDR1 KINASE INHIBITOR, AND MEDICINE” (Nippon Shinyaku Co., Ltd., priority 2022, dated 2024):
Counter-ions that a name gives are not always drawn.

Key:
[1] = system: anti-glomerular basement membrane antibody-induced nephritis model; test: In vivo drug efficacy in an anti-glomerular basement membrane antibody-induced nephritis model (urinary albumin); conditions: twice daily for 7 days, WKY/NCrlCrlj rats, antibody untreated group = 0%, medium-treated group = 100%
[2] = biological target: T1, DDR1 kinase (Homo sapiens, UniProt Q08345); test: Evaluation of DDR1 kinase inhibition in DDR1-expressing U2OS cells (type I collagen stimulation, PathHunter detection); format: cell-based; parameters: host or cells: U2OS; conditions: type I collagen 50 µg/mL stimulation, duplicate, read-out: DDR-1 IC50
Target sequence in this assay (Q08345 19-913): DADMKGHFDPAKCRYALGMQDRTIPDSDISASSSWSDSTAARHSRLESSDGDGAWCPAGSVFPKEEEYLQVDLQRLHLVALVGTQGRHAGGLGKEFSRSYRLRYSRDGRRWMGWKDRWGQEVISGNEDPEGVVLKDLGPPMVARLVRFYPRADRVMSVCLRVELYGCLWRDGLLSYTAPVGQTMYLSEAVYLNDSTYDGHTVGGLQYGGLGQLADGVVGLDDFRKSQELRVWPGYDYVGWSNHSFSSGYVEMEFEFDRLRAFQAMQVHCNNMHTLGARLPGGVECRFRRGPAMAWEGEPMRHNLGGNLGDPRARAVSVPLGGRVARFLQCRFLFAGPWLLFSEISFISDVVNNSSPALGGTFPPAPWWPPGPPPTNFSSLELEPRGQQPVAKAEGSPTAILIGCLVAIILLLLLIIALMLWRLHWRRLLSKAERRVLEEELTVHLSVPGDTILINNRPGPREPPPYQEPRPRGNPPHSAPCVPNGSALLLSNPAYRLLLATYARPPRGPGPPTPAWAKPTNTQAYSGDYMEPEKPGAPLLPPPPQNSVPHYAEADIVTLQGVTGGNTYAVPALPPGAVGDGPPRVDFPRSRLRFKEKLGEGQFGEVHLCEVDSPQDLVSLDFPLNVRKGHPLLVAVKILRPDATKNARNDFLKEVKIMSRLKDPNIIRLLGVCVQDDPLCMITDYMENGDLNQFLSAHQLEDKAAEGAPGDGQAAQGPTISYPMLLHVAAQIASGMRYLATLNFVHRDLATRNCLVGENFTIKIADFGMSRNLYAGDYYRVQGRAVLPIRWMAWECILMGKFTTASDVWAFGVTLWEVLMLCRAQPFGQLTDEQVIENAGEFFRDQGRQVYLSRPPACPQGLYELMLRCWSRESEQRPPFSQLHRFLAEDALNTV

[3] = biological target: T1, DDR1 kinase; test: Evaluation of DDR1 kinase inhibition (LANCE Ultra TR-FRET kinase assay); format: biochemical; parameters: purchased Carna Biosciences 08-113; conditions: DDR1 protein 0.5 nM, LANCE Ultra ULight-poly GAT substrate, 2 hours at room temperature, duplicate; read-out: DDR-1 IC50
Target sequence in this assay (Q08345 19-876 isoform Q08345-2 limits assumed): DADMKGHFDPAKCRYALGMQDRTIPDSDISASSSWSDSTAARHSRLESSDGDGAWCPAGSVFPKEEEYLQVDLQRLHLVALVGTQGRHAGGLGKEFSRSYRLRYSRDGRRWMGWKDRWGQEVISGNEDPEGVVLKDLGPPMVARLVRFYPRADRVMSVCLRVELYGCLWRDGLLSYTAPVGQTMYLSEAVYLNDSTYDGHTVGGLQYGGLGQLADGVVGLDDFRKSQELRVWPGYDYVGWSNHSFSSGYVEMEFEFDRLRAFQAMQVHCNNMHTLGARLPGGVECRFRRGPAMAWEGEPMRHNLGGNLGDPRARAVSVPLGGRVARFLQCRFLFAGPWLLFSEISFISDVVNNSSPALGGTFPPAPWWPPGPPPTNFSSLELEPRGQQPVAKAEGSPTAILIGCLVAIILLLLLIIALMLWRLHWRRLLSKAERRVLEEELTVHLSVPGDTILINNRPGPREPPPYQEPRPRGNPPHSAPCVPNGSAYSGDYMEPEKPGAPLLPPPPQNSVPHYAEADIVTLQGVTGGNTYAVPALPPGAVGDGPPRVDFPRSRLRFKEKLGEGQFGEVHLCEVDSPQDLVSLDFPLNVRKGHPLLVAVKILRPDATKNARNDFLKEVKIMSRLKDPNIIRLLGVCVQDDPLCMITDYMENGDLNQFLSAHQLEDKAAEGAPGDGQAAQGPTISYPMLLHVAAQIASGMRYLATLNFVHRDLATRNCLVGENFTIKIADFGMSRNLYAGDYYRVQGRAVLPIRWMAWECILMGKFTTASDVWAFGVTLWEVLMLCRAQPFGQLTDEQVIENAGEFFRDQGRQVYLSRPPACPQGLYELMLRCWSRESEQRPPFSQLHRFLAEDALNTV

SMILES	Amount (%) of albumin in urine compared with medium-treated group ([1]; Dose 200 mg/kg)	IC50 [2]	IC50 [3]	Amount (%) of albumin in urine compared with medium-treated group ([1]; Dose 100 mg/kg)
Cl.Nc1cc(C(=O)N2CC(c3nn(CC(=O)N4CCC[C@H]4C(F)(F)F)c4cc(F)cc(F)c34)C2)ccn1 [Compound E-2, 2-{3-[1-(2-aminopyridine-4-carbonyl)azetidin-3-yl]-4,6-difluoro-1H-indazol-1-yl}-1-[(2S)-2-(trifluoromethyl)pyrrolidin-1-yl]ethan-1-one hydrochloride]	73%	37 nM	1.6 nM	–
Nc1cc(C(=O)N2CC(c3nn(CC(=O)N4CCC[C@H]4C(F)(F)F)c4ccccc34)C2)c(F)cn1 [Compound E-3, 2-{3-[1-(2-amino-5-fluoropyridine-4-carbonyl)azetidin-3-yl]-1H-indazol-1-yl}-1-[(2S)-2-(trifluoromethyl)pyrrolidin-1-yl]ethan-1-one]	–	53 nM	0.4 nM	67%
Nc1cc(C(=O)N2CC(c3nn(CC(=O)N4CCC[C@H]4C(F)(F)F)c4cccc(F)c34)C2)ccn1 [Compound E-96, 2-{3-[1-(2-aminopyridine-4-carbonyl)azetidin-3-yl]-4-fluoro-1H-indazol-1-yl}-1-[(2S)-2-(trifluoromethyl)pyrrolidin-1-yl]ethan-1-one]	–	84 nM	0.9 nM	–
CN(CC(F)(F)F)C(=O)Cn1nc(C2CN(C(=O)c3nc(N)ncc3F)C2)c2cc(Cl)ccc21 [Compound E-21, 2-{3-[1-(2-amino-5-fluoropyrimidine-4-carbonyl)azetidin-3-yl]-5-chloro-1H-indazol-1-yl}-N-methyl-N-(2,2,2-trifluoroethyl)acetamide]	–	140 nM	1.5 nM	–
Nc1cc(C(=O)N2CC(c3nn(Cc4nc(C(F)(F)F)no4)c4ccccc34)C2)ccn1 [Compound E-218]	–	74 nM	13 nM	–
Cc1c(C(=O)N2CC(c3nn(CC(=O)N4CCC[C@H]4C(F)(F)F)c4cc(F)cc(F)c34)C2)ccnc1N [Compound E-77, 2-{3-[1-(2-amino-3-methylpyridine-4-carbonyl)azetidin-3-yl]-4,6-difluoro-1H-indazol-1-yl}-1-{(2S)-2-(trifluoromethyl)pyrrolidin-1-yl]ethan-1-one hydrochloride]	–	320 nM	3.5 nM	–
Nc1cc(C(=O)N2CC(c3nn(CC(=O)N(CC(F)(F)F)C4CC4)c4ccccc34)C2)c(F)cn1 [Compound E-251, 2-{3-[1-(2-amino-5-fluoropyridine-4-carbonyl)azetidin-3-yl]-1H-indazol-1-yl}-N-cyclopropyl-N-(2,2,2-trifluoroethyl)acetamide]	–	19 nM	2.5 nM	–
CN(C(=O)Cn1nc(C2CN(C(=O)c3cc(N)ncc3F)C2)c2ccccc21)C1CCOCC1 [Compound E-255, 2-{8-[1-(2-amino-5-fluoropyridine-4-carbonyl)azetidin-8-yl]-1H-indazol-1-yl}-N-methyl-N-(oxan-4-yl)acetamide]	–	180 nM	22 nM	–
C[C@H]1CN(C(=O)Cn2nc(C3CN(C(=O)c4ccnc(N)c4)C3)c3c(F)cc(F)cc32)CCO1 [Compound E-79, 2-{3-[1-(2-aminopyridine-4-carbonyl)azetidin-3-yl]-4,6-difluoro-1H-indazol-1-yl}-1-[(2S)-2-methylmorpholin-4-yl]ethan-1-one hydrochloride]	–	3400 nM	35 nM	–
Cc1c(C(=O)N2CC(c3nn(CC(=O)N4CCO[C@H](C(F)(F)F)C4)c4cc(F)cc(F)c34)C2)ccnc1N [Compound E-89, 2-{3-[1-(2-amino-3-methylpyridine-4-carbonyl)azetidin-3-yl]-4,6-difluoro-1H-indazol-1-yl]-1-[(2S)-2-(trifluoromethyl)morpholin-4-yllethan-1-one hydrochloride]	–	400 nM	45 nM	–
C[C@@H]1CN(C(=O)Cn2nc(C3CN(C(=O)c4ccnc(N)c4)C3)c3c(F)cc(F)cc32)C[C@H](C)O1 [Compound E-84, 2-{3-[1-(2-aminopyridine-4-carbonyl)azetidin-3-yl)-4,6-difluoro-1H-indazol-1-yl}-1-[(2R,68)-2,6-dimethylmorpholin-4-yl]ethan-1-one]	–	2300 nM	0.3 nM	–
